Results taken from the NIST ThermoML archive (doi:10.1021/je300234g).
Numbers after ± are expanded uncertainties.

How the values were obtained:
[1] = relative permittivity at zero frequency (dimensionless); conditions: 101.3 kPa, Liquid, Parallel plate capacitor
[2] = Crystal; visual observation

C1COCCOCCOCCOCCOCCO1 [1,4,7,10,13,16-hexaoxacyclooctadecane]
[1]
Conditions | relative permittivity at zero frequency
315.65 K | 8.9 ± 0.09
318.15 K | 8.86 ± 0.09
320.65 K | 8.82 ± 0.09
323.15 K | 8.77 ± 0.09
325.65 K | 8.73 ± 0.09
328.15 K | 8.69 ± 0.09
330.65 K | 8.64 ± 0.09
333.15 K | 8.59 ± 0.09
335.65 K | 8.54 ± 0.09
338.15 K | 8.49 ± 0.09
340.65 K | 8.44 ± 0.08
343.15 K | 8.39 ± 0.08
345.65 K | 8.34 ± 0.08
348.15 K | 8.29 ± 0.08
350.65 K | 8.24 ± 0.08
353.15 K | 8.19 ± 0.08

Conditions | Normal melting temperature [°C]
[2] | 43.4 ± 3

C1COCCOCCOCCOCCO1 [1,4,7,10,13-pentaoxacyclopentadecane]
[1]
Conditions | relative permittivity at zero frequency
273.15 K | 17.82 ± 0.18
275.65 K | 17.56 ± 0.18
278.15 K | 17.3 ± 0.17
280.65 K | 17.05 ± 0.17
283.15 K | 16.81 ± 0.17
285.65 K | 16.57 ± 0.17
288.15 K | 16.34 ± 0.16
290.65 K | 16.11 ± 0.16
293.15 K | 15.89 ± 0.16
295.65 K | 15.68 ± 0.16
298.15 K | 15.48 ± 0.15
300.65 K | 15.28 ± 0.15
303.15 K | 15.08 ± 0.15
305.65 K | 14.88 ± 0.15
308.15 K | 14.69 ± 0.15
310.65 K | 14.5 ± 0.15
313.15 K | 14.31 ± 0.14
315.65 K | 14.14 ± 0.14
318.15 K | 13.96 ± 0.14
320.65 K | 13.79 ± 0.14
323.15 K | 13.63 ± 0.14
325.65 K | 13.46 ± 0.13
328.15 K | 13.3 ± 0.13
330.65 K | 13.15 ± 0.13
333.15 K | 13 ± 0.13

Conditions | Normal melting temperature [°C]
[2] | -20 ± 1

C1COCCOCCOCCO1 [1,4,7,10-tetraoxacyclododecane]
[1]
Conditions | relative permittivity at zero frequency
295.65 K | 10.95 ± 0.11
298.15 K | 10.82 ± 0.11
300.65 K | 10.7 ± 0.11
303.15 K | 10.58 ± 0.11
305.65 K | 10.45 ± 0.1
308.15 K | 10.34 ± 0.1
310.65 K | 10.22 ± 0.1
313.15 K | 10.11 ± 0.1
315.65 K | 10 ± 0.1
318.15 K | 9.9 ± 0.1
320.65 K | 9.79 ± 0.1
323.15 K | 9.69 ± 0.1
325.65 K | 9.59 ± 0.1
328.15 K | 9.49 ± 0.1
330.65 K | 9.41 ± 0.09
333.15 K | 9.31 ± 0.09
335.65 K | 9.22 ± 0.09
338.15 K | 9.13 ± 0.09
340.65 K | 9.04 ± 0.09
343.15 K | 8.94 ± 0.09
345.65 K | 8.86 ± 0.09
348.15 K | 8.76 ± 0.09
350.65 K | 8.68 ± 0.09
353.15 K | 8.59 ± 0.09

Conditions | Normal melting temperature [°C]
[2] | 16 ± 1
